“And” between values parts separate entries of the source, which are not always exact repeats. Identical values can stand only once. Like-named read-outs stand apart in the source and are kept apart here. Some results are limits rather than exact numbers.

10 compounds from US4250329A, “Carbonylation process” (priority 1979, dated 1981) can be followed below.

Test [1] can be described thus: Hydroformylation of propylene. To be noted: 133 °C. An excerpt: [table 17: the next 25 blocks are its lines as printed, fixed-width]
Test [2] can be described thus: Carbonylation of methanol to methyl acetate. On the set-up: methyl acetate (drawing 15) produced: unit not given here. Conditions: for methyl acetate (drawing 17): the values are: methyl acetate volume produced; for methyl acetate (drawing 15) produced / CH3 OH consumed: 20 hour; for % Conversion (Table II) / % Selectivity (Table II; additional product was dimethyl ether): 1000 psi. The procedure:
(THF)4 Mg[Co(CO)3 P(C4 H9)3 ]2 +CH3 I catalyst system
Reaction conditions: 175° C., 1000 psi

Test [3] is described as follows: Carbonylation of methanol to methyl acetate. Conditions: 175° C.
How the values of test [4] were obtained:
This conversion is run at elevated pressures, preferably from 1,500 to 3,000 psi. Reaction temperatures will range from 50° C. to 200° C., with a range of 100° C. to 150° C. preferred. Ratio of H2 to CO used will vary with reaction conditions; preferably a 1 to 1 ratio is maintained. The catalyst concentration will range from 0.01 to 20% based on the weight feed, with 0.05 to 10% preferred.
30 ml. of hexene-1, 20 ml. of benzene, and 0.3 gm. […] The bomb was heated to 140° C. and held until the reaction was complete.

Setting [5] is: cocatalyst 8.0 mmole, 90 hr, 1.0 mmole catalyst, 175° C., 1000 psi CO.
[6] abbreviates: cocatalyst 8.0 mmole, 19 hr, 1.0 mmole catalyst, 175° C., 1000 psi CO.
[7] abbreviates: CH3I 1.6 mmole, 18 hr, 175° C., 1000 psi CO, no reaction occurs.
Setting [8] is: CH3I 4.0 mmole, 18 hr, 175° C., 1000 psi CO.
Setting [9] is: CH3I 6.0 mmole, 18 hr, 175° C., 1000 psi CO.
The mark [10] stands for this setting: CH3I 8.0 mmole, 3.25 hr, 175° C., 4000 psig CO.
The mark [11] stands for this setting: CH3I 8.0 mmole, 18 hr, 175° C., 1000 psi CO.
The mark [12] stands for this setting: CH3I 12.0 mmole, 18 hr, 175° C., 1000 psi CO.
Where [13] appears, read: CH3I 16.0 mmole, 18 hr, 175° C., 1000 psi CO.
Where [14] appears, read: CH3I 48.0 mmole, 17 hr, 175° C., 1000 psi CO.
Setting [15] is: cocatalyst 8.0 mmole, 18 hr, 1.0 mmole catalyst, 175° C., 1000 psi CO.
The mark [16] stands for this setting: catalyst 1.0 mmole, CH3I 8.0 mmole, 21 hour, 175° C.
[17] abbreviates: catalyst 2.0 mmole, CH3I 8.0 mmole, 67 hour, 175° C.
The mark [18] stands for this setting: 1500 psi 1:1 H2:CO, 140° C., 0.3 gm catalyst.

For `[C-]#[O+].[Cl-].[Rh].c1ccc(P(c2ccccc2)c2ccccc2)cc1.c1ccc(P(c2ccccc2)c2ccccc2)cc1` [((C6 H5)3 P)2 Rh(CO)Cl], the t1/2 in test [1] (1n 2/k) is on record as 9.32 min. Further, in test [1] (1000 psig CO/H2 50/50), the “k (pseudo 1st order reaction rate constant)” value was determined as 0.0744 min⁻¹. Besides, in test [1] (1000 psig CO/H2 50/50, benzene, 0.5 mmoles catalyst based on Rh), the “n-C4 H8 O (percent straight chain isomer)” value was found to be 56%.
As for `Ic1ccccc1` [C6 H5 I], in test [2] (setting [5]), the “% Conversion to Methyl Acetate (Table III)” value (shortened to “% Conversion … (Table III)”) was found to be 25% and the “% Selectivity to Methyl Acetate (Table III)” value (from here on “% Selectivity … (Table III)”) was 52%. The compound further returned a methyl acetate (drawing 17) in test [2] (cocatalyst 8.0 mmole, 1000 psi CO, 175° C., 90 hours) of 22.3 mL.
In the case of `CBr` [CH3 Br], the activity as cocatalyst result in test [2] is “inactive”.
In the case of `CCI` [CH3 CH2 I], in test [2] (setting [6]), the “% Conversion … (Table III)” value came to 20% and the “% Selectivity … (Table III)” value was found to be 85%. In test [2], the methyl acetate (drawing 17) came to 17.5 mL.
As for `CI` [CH3 I, methyl iodide], the “% Conversion to Methyl Acetate (Table IV)” value is recorded as 0.0% in test [2] (setting [7]); 22% in test [2] (setting [8]); 24% in test [2] (setting [9]); 29% in test [2] (setting [10]); 24% in test [2] (setting [11]); 5.4% in test [2] (setting [12]). Further, the “% Conversion to Methyl Acetate (Table IV)” value in test [2] (setting [13]) is reported as 4.5%; in test [2] (setting [14]), 0.0%; in test [3] (CH3I 16.0 mmole, 4.25 hr, 4000 psig CO) it was 25%. Besides, the “% Selectivity to Methyl Acetate (Table IV)” value in test [2] (setting [7]) stood at 0.0%; in test [2] (setting [8]), 100%; in test [2] (setting [9]) it was 100%; in test [2] (setting [10]), 97%; in test [2] (setting [11]), 85%; in test [2] (setting [12]) it was 15%. Moreover, the “% Selectivity to Methyl Acetate (Table IV)” value in test [2] (CH3I 16.0 mmole, 4.25 hr, 175° C., 4000 psig CO) is given as 74%; in test [2] (setting [13]) it was 12%; in test [2] (setting [14]) it was 0.0%. Also, the “methyl acetate (drawing 15) produced” value stood at 0.5 in test [2] (CH3I 1.6 mmole, 1.0 mmole catalyst, 1000 psi CO, 175° C.); 22.4 in test [2] (CH3I 8.0 mmole, 1.0 mmole catalyst, 1000 psi CO, 175° C.); 4.5 in test [2] (CH3I 16.0 mmole, 1.0 mmole catalyst, 1000 psi CO, 175° C.); 1.2 in test [2] (CH3I 48.0 mmole, 1.0 mmole catalyst, 1000 psi CO, 175° C.). In addition, the “CH3 OH consumed” value in test [2] (CH3I 1.6 mmole, 1000 psi CO, 175° C.) amounted to 1.2 mL; in test [2] (CH3I 8.0 mmole, 1000 psi CO, 175° C.), 30.0 mL; in test [2] (CH3I 16.0 mmole, 1000 psi CO, 175° C., CH3OH is dehydrated to CH3OCH3), 45.0 mL; in test [2] (CH3I 48.0 mmole, 1000 psi CO, 175° C., CH3OH is dehydrated to CH3OCH3), 90. ml. Further, the “conversion to CH3 OCH3” value in test [2] (setting [14]) was 100%. In addition, the “% Selectivity … (Table III)” value in test [2] (cocatalyst 8.0 mmole, 3.25 hr, 1.0 mmole catalyst, 175° C., 4000 psi CO) turned out to be 97%; in test [2] (setting [15]), 85%; in test [3] (cocatalyst 16.0 mmole, 4.25 hr, 1.0 mmole catalyst, 4000 psi CO), 74%. The “% Conversion … (Table III)” value in test [2] (setting [15]) is listed as 24%; in test [2] (cocatalyst 16.0 mmole, 4.25 hr, 1.0 mmole catalyst, 175° C., 4000 psi CO) it was 25%; in test [3] (cocatalyst 8.0 mmole, 3.25 hr, 1.0 mmole catalyst, 4000 psi CO), 29%. The methyl acetate (drawing 17) in test [2] is 19.8 mL and 29.6 mL and 21.4 mL.
Consider `[C-]#[O+].[C-]#[O+].[C-]#[O+].[C-]#[O+].[C-]#[O+].[C-]#[O+].[C-]#[O+].[C-]#[O+].[Co].[Co]` [Co2 (CO)8], for which, in test [2] (setting [16]), the “% Conversion (Table II)” value turned out to be 3.5% and the “% Selectivity (Table II; additional product was dimethyl ether)” value came to 6.4%.
For `CC(=O)[CH-]C(C)=O.CC(=O)[CH-]C(C)=O.CC(=O)[CH-]C(C)=O.[Co+3]` [Co(C5 H7 O2)3], in test [2] (setting [17]), the “% Conversion (Table II)” value is 16% and the “% Selectivity (Table II; additional product was dimethyl ether)” value turned out to be 23%.
Turning to `I` [HI], in test [2], the “% Conversion … (Table III)” value was 8%, the “% Selectivity … (Table III)” value came out at 47% and the methyl acetate (drawing 17) is 6.6 mL.
In the case of `[I-].[Li+]` [LiI], in test [2], the “% Conversion … (Table III)” value is given as 0.6%, the “% Selectivity … (Table III)” value was 100% and the methyl acetate (drawing 17) came out at 1 mL.
As to “tetrakis tetrahydrofuran adduct of a magnesium-dicobalt hexacarbonyl bismethyldiphenylphosphine complex [(C4 H8 O)4 Mg[Co(CO)3 PCH3 (C6 H5)2]2]”, in test [4] (setting [18]), the “hexene-1 converted to C7 aldehydes and C7 alcohols” value stood at 99%; the “reacted product that was an aldehyde” value is 87%. Further, in test [4] (elevated pressures), the “conversion of 1-hexene to heptaldehydes” value is recorded as over 99% and the “selectivity, 1-hexene to heptaldehydes” value came out at 87%.
